The assay deals with bovine cardiac myosin (Bos taurus, UniProt Q9BE39). Put plainly: Myosin activation assay (PK/LDH-coupled ATPase, bovine cardiac myofibrils). In kind it is biochemical. Particulars: AC20 = concentration at which total response is increased by twenty percent. The procedure: Small molecule agents were assessed for their ability to activate the enzymatic activity of bovine cardiac myosin using a biochemical assay that couples the release of ADP (adenosine diphosphate) from cardiac myosin to an enzymatic coupling system consisting of pyruvate kinase and lactate dehydrogenase (PK/LDH) and monitoring the absorbance decrease of NADH (at 340 nm) as a function of time. PK converts ADP to ATP (adenosine triphosphate) by converting PEP (phosphoenolpyruvate) to pyruvate. Pyruvate is then converted to lactate by LDH by converting NADH (nicotinamide adenine dinucleotide) to NAD (oxidized nicotinamide adenine dinucleotide). The source of cardiac myosin was from bovine heart in the form of skinned myofibrils. Prior to testing small molecule agents, the bovine myofibrils were assessed for their calcium responsiveness and the calcium concentration that achieves either a 50% (pCa50 or pCa=˜6) or <5% (pCa=10) activation of the myofibril system was chosen as the final condition for assessing the activation activity of the small molecule agents. All enzymatic activity was measured in a buffered solution containing 12 mM PIPES (piperazine-N,N′-bis(2-ethanesulfonic acid), 2 mM magnesium chloride at pH 6.8 (PM12 buffer). Final assay conditions were 1 mg/mL of bovine cardiac myofibrils, 0.4 mM PK/LDH, 50 uM ATP, 0.1 mg/mL BSA (bovine serum albumin), 10 ppm antifoam, 2 mM BME, 0.5 mM NADH, 1.5 mM PEP at the desired free calcium concentration required to achieve either 50% or <5% activation of the myofibrils.
A dilution series of compound was created in DMSO such that the final desired concentration of compound would be achieved in a volume of […] with a fixed DMSO concentration of 3.3% (v/v). Typically a 1 μL of the dilution series was added to a 384 well plate to achieve a 10 point dose response. Following the addition of 14 μL of a solution containing bovine cardiac myofibrils, PK/LDH and a solution of calcium (that achieved the desired activation), the enzymatic reaction was started with the addition of 15 μL of a solution containing ATP, PEP and NADH. The reaction progress was followed in a PerkinElmer Envision plate reader at ambient temperature using clear bottom plates. The plate reader was configured to read absorbance at 340 nm in kinetics mode for 15 minutes. Data were recorded as the slope of the absorbance response to time. The slopes of the absorbance response as a function of time were normalized to slopes on the plate containing DMSO. This normalized rate was then plotted as a function of small molecule concentration and the data was fitted to a four-parameter fit using EXCEL XLfit. The concentration at which the total response is increased by twenty or fifty percent is reported as AC20 or AC50.

Sequence of bovine cardiac myosin (Q9BE39 whole entry): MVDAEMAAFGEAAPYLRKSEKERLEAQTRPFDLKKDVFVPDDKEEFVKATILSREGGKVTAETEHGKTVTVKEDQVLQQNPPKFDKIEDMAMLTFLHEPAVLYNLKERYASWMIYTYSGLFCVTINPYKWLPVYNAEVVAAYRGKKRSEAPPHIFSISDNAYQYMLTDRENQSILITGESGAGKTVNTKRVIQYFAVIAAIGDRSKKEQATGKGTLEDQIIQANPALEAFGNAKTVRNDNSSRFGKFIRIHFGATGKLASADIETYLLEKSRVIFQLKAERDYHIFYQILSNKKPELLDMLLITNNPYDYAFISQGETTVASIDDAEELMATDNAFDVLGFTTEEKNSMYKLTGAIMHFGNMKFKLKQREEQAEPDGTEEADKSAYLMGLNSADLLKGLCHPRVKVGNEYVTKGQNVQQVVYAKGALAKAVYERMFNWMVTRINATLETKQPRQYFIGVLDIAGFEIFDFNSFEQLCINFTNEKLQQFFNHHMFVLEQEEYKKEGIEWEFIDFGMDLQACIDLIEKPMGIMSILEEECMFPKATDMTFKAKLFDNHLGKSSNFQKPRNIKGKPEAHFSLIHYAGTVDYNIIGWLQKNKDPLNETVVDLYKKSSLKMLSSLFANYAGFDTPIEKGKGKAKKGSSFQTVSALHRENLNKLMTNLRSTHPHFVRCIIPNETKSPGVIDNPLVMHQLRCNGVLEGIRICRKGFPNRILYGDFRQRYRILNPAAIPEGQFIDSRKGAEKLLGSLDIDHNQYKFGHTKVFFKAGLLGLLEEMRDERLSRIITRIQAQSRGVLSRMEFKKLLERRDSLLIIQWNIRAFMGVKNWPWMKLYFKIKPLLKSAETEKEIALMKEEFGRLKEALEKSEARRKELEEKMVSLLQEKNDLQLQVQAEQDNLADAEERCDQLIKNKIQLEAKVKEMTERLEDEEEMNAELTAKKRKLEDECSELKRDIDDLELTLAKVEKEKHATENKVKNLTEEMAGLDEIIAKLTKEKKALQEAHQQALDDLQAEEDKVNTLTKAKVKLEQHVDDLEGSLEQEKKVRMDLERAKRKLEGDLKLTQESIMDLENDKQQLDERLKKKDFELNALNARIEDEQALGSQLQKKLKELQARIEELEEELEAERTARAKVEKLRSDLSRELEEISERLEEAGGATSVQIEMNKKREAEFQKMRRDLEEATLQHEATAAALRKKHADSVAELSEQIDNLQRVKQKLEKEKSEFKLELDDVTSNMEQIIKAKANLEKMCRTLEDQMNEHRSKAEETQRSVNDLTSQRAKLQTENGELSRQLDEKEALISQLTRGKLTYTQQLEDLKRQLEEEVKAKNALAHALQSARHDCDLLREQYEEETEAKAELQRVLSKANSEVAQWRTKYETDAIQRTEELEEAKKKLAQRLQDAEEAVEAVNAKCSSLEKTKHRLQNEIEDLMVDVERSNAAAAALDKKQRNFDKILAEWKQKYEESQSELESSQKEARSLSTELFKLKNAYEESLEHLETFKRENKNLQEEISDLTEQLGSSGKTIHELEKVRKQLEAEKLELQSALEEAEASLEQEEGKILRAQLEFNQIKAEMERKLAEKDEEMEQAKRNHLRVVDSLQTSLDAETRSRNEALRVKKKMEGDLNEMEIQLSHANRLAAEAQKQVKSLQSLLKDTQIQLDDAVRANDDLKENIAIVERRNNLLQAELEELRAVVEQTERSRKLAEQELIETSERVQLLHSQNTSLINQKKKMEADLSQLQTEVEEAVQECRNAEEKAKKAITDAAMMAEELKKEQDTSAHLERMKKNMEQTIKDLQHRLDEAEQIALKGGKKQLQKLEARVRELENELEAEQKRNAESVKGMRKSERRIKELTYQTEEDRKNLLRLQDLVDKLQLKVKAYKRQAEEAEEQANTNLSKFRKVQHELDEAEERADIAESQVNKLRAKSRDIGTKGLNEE
Sequence of bovine cardiac myosin (P85100 whole entry partner): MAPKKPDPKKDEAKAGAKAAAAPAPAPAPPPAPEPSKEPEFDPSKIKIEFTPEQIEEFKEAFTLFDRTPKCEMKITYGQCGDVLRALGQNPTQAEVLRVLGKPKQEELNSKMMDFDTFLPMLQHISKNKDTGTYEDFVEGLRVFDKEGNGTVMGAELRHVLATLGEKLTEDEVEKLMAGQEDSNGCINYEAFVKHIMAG
Sequence of bovine cardiac myosin (Q3SZE5 whole entry partner): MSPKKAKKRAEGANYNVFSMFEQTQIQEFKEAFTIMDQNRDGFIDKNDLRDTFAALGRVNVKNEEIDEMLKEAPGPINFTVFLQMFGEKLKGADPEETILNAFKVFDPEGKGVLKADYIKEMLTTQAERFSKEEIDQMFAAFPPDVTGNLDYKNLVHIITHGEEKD

As to `CC(F)(C1CCN(C(=O)Nc2ccnnc2)CC1)S(=O)(=O)c1ccccc1C#N` (stereo not drawn) [Compound 56, 4-(1-((2-cyanophenyl)sulfonyl)-1-fluoroethyl)-N-(pyridazin-4-yl)piperidine-1-carboxamide], the “Myosin Activation (AC20)” value is “+++ (+++ represents myosin activation value AC20 < 2 μM)”.
Next, `C[C@](F)(C1CCN(C(=O)Nc2cnc3c(c2)CNC3=O)CC1)S(=O)(=O)c1cccc(F)c1` [Compound 301, (R)-4-(1-fluoro-1-((3-fluorophenyl)sulfonyl)ethyl)-N-(7-oxo-6,7-dihydro-5H-pyrrolo[3,4-b]pyridin-3-yl)piperidine-1-carboxamide]: “++ (++ represents myosin activation value AC20 from 2 μM-5 μM)”.
Under `Cn1nc(C(F)(F)F)cc1S(=O)(=O)[C@](C)(F)C1CCN(C(=O)Nc2ccon2)CC1` [Compound 229] stands “+ (+ represents myosin activation value AC20 > 5 μM)”; under `O=C(Nc1ccnnc1)N1CCC(C(F)(F)S(=O)(=O)c2ccc(-n3cncn3)cc2)CC1` [Compound 64, 4-(((4-(1H-1,2,4-triazol-1-yl)phenyl)sulfonyl)difluoromethyl)-N-(pyridazin-4-yl)piperidine-1-carboxamide], “++ (++ represents myosin activation value AC20 from 2 μM-5 μM)”.
As for `CC(C)(C1CCN(C(=O)Nc2nnco2)CC1)S(=O)(=O)c1cccc(F)c1` [Compound 153, 4-(2-((3-fluorophenyl)sulfonyl)propan-2-yl)-N-(1,3,4-oxadiazol-2-yl)piperidine-1-carboxamide], the “Myosin Activation (AC20)” value was “+ (+ represents myosin activation value AC20 > 5 μM)”.
Turning to `Cn1cc(S(=O)(=O)C(C)(C)C2CCN(C(=O)Nc3cn[nH]c3)CC2)c(C(F)(F)F)n1` [Compound 110, 4-(2-((1-methyl-3-(trifluoromethyl)-1H-pyrazol-4-yl)sulfonyl)propan-2-yl)-N-(1H-pyrazol-4-yl)piperidine-1-carboxamide], the “Myosin Activation (AC20)” value is given as “++ (++ represents myosin activation value AC20 from 2 μM-5 μM)”.
With `COc1ccc(S(=O)(=O)[C@@](C)(F)C2CCN(C(=O)Nc3ccon3)CC2)cn1` [Compound 308, (R)-4-(1-fluoro-1-((6-methoxypyridin-3-yl)sulfonyl)ethyl)-N-(isoxazol-3-yl)piperidine-1-carboxamide], the “Myosin Activation (AC20)” value is recorded as “++ (++ represents myosin activation value AC20 from 2 μM-5 μM)”.
Turning to `O=C(Nc1ccnnc1)N1CCC(C(F)(F)S(=O)(=O)c2cnn3ccccc23)CC1` [Compound 93, 4-(difluoro(pyrazolo[1,5-a]pyridin-3-ylsulfonyl)methyl)-N-(pyridazin-4-yl)piperidine-1-carboxamide], the “Myosin Activation (AC20)” value is “++ (++ represents myosin activation value AC20 from 2 μM-5 μM)”.
Next, `CC(C)(C1(F)CCN(C(=O)Nc2ccnnc2)CC1)S(=O)(=O)c1cccc(F)c1` [Compound 30, 4-Fluoro-4-(2-((3-fluorophenyl)sulfonyl)propan-2-yl)-N-(pyridazin-4-yl)piperidine-1-carboxamide]: “++ (++ represents myosin activation value AC20 from 2 μM-5 μM)”; `CCn1nccc1S(=O)(=O)C(C)(C)C1CCN(C(=O)Nc2cnns2)CC1` [Compound 183, 4-(2-((1-ethyl-1H-pyrazol-5-yl)sulfonyl)propan-2-yl)-N-(1,2,3-thiadiazol-5-yl)piperidine-1-carboxamide]: “++ (++ represents myosin activation value AC20 from 2 μM-5 μM)”.
Under `CC(C)(C1CCN(C(=O)Nc2ccnnc2)CC1)S(=O)(=O)c1ccccc1Cl` [Compound 197, 4-(2-((2-chlorophenyl)sulfonyl)propan-2-yl)-N-(pyridazin-4-yl)piperidine-1-carboxamide] stands “+++ (+++ represents myosin activation value AC20 < 2 μM)”.
Regarding `O=C(Nc1ccnnc1)N1CCC(C(F)(F)S(=O)(=O)c2cccc3c2COC3)CC1` [Compound 71, 4-(((1,3-dihydroisobenzofuran-4-yl)sulfonyl)difluoromethyl)-N-(pyridazin-4-yl)piperidine-1-carboxamide], the “Myosin Activation (AC20)” value was “++ (++ represents myosin activation value AC20 from 2 μM-5 μM)”.
Take `Cn1nc(C(F)(F)F)cc1S(=O)(=O)C(C)(F)C1CCN(C(=O)Nc2ccon2)CC1` (stereo not drawn) [Compound 249, 4-(1-fluoro-1-((1-methyl-3-(trifluoromethyl)-1H-pyrazol-5-yl)sulfonyl)ethyl)-N-(isoxazol-3-yl)piperidine-1-carboxamide]: the “Myosin Activation (AC20)” value was “++ (++ represents myosin activation value AC20 from 2 μM-5 μM)”.
Next, `O=C(Nc1ccncc1)N1CCC(CS(=O)(=O)c2cccc(F)c2)CC1` [Compound 33, 4-(((3-fluorophenyl)sulfonyl)methyl)-N-(pyridin-4-yl)piperidine-1-carboxamide]: “+ (+ represents myosin activation value AC20 > 5 μM)”.
In the case of `Cn1cc(S(=O)(=O)C(F)(F)C2CCN(C(=O)Nc3ccnnc3)CC2)c(C(F)F)n1` [Compound 83, 4-(((3-(difluoromethyl)-1-methyl-1H-pyrazol-4-yl)sulfonyl)difluoromethyl)-N-(pyridazin-4-yl)piperidine-1-carboxamide], the “Myosin Activation (AC20)” value is “++ (++ represents myosin activation value AC20 from 2 μM-5 μM)”.
Under `Cc1ccc(NC(=O)N2CCC(C(C)(C)S(=O)(=O)c3cccc(F)c3)CC2)nn1` [Compound 121, 4-(2-((3-fluorophenyl)sulfonyl)propan-2-yl)-N-(6-methylpyridazin-3-yl)piperidine-1-carboxamide] stands “+ (+ represents myosin activation value AC20 > 5 μM)”; under `Cn1nc(C(F)F)cc1S(=O)(=O)C(C)(C)C1CCN(C(=O)Nc2ccc(F)nc2)CC1` [Compound 106, 4-(2-((3-(difluoromethyl)-1-methyl-1H-pyrazol-5-yl)sulfonyl)propan-2-yl)-N-(6-fluoropyridin-3-yl)piperidine-1-carboxamide], “++ (++ represents myosin activation value AC20 from 2 μM-5 μM)”; under `CC(F)(C1CCN(C(=O)Nc2cccnc2)CC1)S(=O)(=O)c1cccc(F)c1` (stereo not drawn) [Compound 224, 4-(1-fluoro-1-((3-fluorophenyl)sulfonyl)ethyl)-N-(pyridin-3-yl)piperidine-1-carboxamide], “++ (++ represents myosin activation value AC20 from 2 μM-5 μM)”.
Next, `CC(F)(C1CCN(C(=O)Nc2cncc(F)c2)CC1)S(=O)(=O)c1cccc(F)c1` (stereo not drawn) [Compound 223, 4-(1-fluoro-1-((3-fluorophenyl)sulfonyl)ethyl)-N-(5-fluoropyridin-3-yl)piperidine-1-carboxamide]: “+ (+ represents myosin activation value AC20 > 5 μM)”; `Cn1nc(C(F)(F)F)cc1S(=O)(=O)C(C)(F)C1CCN(C(=O)Nc2ccc(F)nc2)CC1` (stereo not drawn) [Compound 252, 4-(1-fluoro-1-((1-methyl-3-(trifluoromethyl)-1H-pyrazol-5-yl)sulfonyl)ethyl)-N-(6-fluoropyridin-3-yl)piperidine-1-carboxamide]: “++ (++ represents myosin activation value AC20 from 2 μM-5 μM)”; `Cn1nc(C(F)(F)F)cc1S(=O)(=O)C(C)(C)C1CCN(C(=O)Nc2ccnnc2)CC1` [Compound 137, 4-(2-((1-methyl-3-(trifluoromethyl)-1H-pyrazol-5-yl)sulfonyl)propan-2-yl)-N-(pyridazin-4-yl)piperidine-1-carboxamide]: “+++ (+++ represents myosin activation value AC20 < 2 μM)”.
On to `Cn1cc(S(=O)(=O)C(C)(F)C2CCN(C(=O)Nc3ccnnc3)CC2)c(C(F)F)n1` (stereo not drawn) [Compound 276, 4-(1-((3-(difluoromethyl)-1-methyl-1H-pyrazol-4-yl)sulfonyl)-1-fluoroethyl)-N-(pyridazin-4-yl)piperidine-1-carboxamide], for which the “Myosin Activation (AC20)” value was “+++ (+++ represents myosin activation value AC20 < 2 μM)”.
For the compound `Cc1ccc(NC(=O)N2CCC(C(C)(F)S(=O)(=O)c3cc(C(F)(F)F)nn3C)CC2)cn1` (stereo not drawn) [Compound 250, 4-(1-fluoro-1-((1-methyl-3-(trifluoromethyl)-1H-pyrazol-5-yl)sulfonyl)ethyl)-N-(6-methylpyridin-3-yl)piperidine-1-carboxamide], the “Myosin Activation (AC20)” value was “++ (++ represents myosin activation value AC20 from 2 μM-5 μM)”.
Under `O=C(Nc1ccnnc1)N1CCC(C(F)(F)S(=O)(=O)c2ccccc2CO)CC1` [Compound 25, 4-(Difluoro((2-(hydroxymethyl)phenyl)sulfonyl)methyl)-N-(pyridazin-4-yl)piperidine-1-carboxamide] stands “++ (++ represents myosin activation value AC20 from 2 μM-5 μM)”.

The record behind these values is patent US11123337B2, “4-methylsulfonyl-substituted piperidine urea compounds” (MYOKARDIA, INC., priority 2015, dated 2021).
